Assay results taken from ChEMBL document CHEMBL1201862, “PubChem BioAssay data set” (2004).
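Step 1: Grow cells in 96-well plates. Step 2: Expose to compound for 48 hours at 5 concentrations. Step 3: Interpolate endpoints linearly; if unreached, use highest concentration. GI50 is the concentration that inhibits growth by half.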 Active and inactive are the calls of the source. Rule as the data show it: active = GI50 up to about 1.1 µM and inactive = higher.

Columns and labels:
Assay in all cases: inhibition of tumour cell growth, NCI panel, 48 h
[1] = system: NCI-H23
[2] = system: SN12C
[3] = system: OVCAR-5
[4] = system: M14
[5] = system: SR
[6] = system: Malme-3M
[7] = system: U-251
[8] = system: RPMI-8226
[9] = system: MDA-MB-231
[10] = system: BT-549
[11] = system: SK-MEL-28
[12] = system: OVCAR-3
[13] = system: MDA-N
[14] = system: RXF 393
[15] = system: HCT-116
[16] = system: IGROV-1
[17] = system: NCI/ADR-RES
[18] = system: NCI-H522
[19] = system: PC-3
[20] = system: T47D

SMILES | GI50 [1] | GI50 [2] | GI50 [3] | GI50 [4] | GI50 [5] | GI50 [6] | GI50 [7] | GI50 [8] | GI50 [9] | GI50 [10] | GI50 [11] | GI50 [12] | GI50 [13] | GI50 [14] | GI50 [15] | GI50 [16] | GI50 [17] | GI50 [18] | GI50 [19] | GI50 [20]
COc1cc(/C=C\c2ccc(C)cc2)cc(OC)c1OC | 0.0363 µM (active) | 0.0105 µM (active) | 0.116 µM (active) | 0.00723 µM (active) | 0.00841 µM (active) | 0.00359 µM (active) | 0.00441 µM (active) | 0.00371 µM (active) | 0.0259 µM (active) | 0.0246 µM (active) | 0.0167 µM (active) | 0.00115 µM (active) | 0.00221 µM (active) | < 0.01 µM (active) | 0.00106 µM (active) | 0.0466 µM (active) | 0.00767 µM (active) | 0.00323 µM (active) | 0.0123 µM (active) | 
Oc1ccc(Cl)cc1C1=NC(NCN2CCN(CNC3=NC(c4ccccc4)CC(c4cc(Cl)ccc4O)=N3)CC2)=NC(c2ccccc2)C1 (centres undefined) | 46.6 µM (inactive) | 24.7 µM (inactive) | 50.9 µM (inactive) | 58.6 µM (inactive) | 28 µM (inactive) | 93.5 µM (inactive) | 35.4 µM (inactive) | 18.4 µM (inactive) | > 100 µM (inactive) | 52.2 µM (inactive) | > 100 µM (inactive) | 28.8 µM (inactive) | 50.2 µM (inactive) | 22 µM (inactive) | 20.4 µM (inactive) | 34.4 µM (inactive) | 38.4 µM (inactive) |  | 39.7 µM (inactive) | 
Clc1ccc(Cn2cc(/C=N/n3cnnc3)c3ccccc32)cc1 | 29.3 µM (inactive) | 45.9 µM (inactive) | 11.7 µM (inactive) | 57 µM (inactive) | 39.9 µM (inactive) | 89.3 µM (inactive) | 37.8 µM (inactive) | 28.1 µM (inactive) | 20.4 µM (inactive) | 29.3 µM (inactive) | > 100 µM (inactive) | 86.5 µM (inactive) |  | 16.4 µM (inactive) | 31.8 µM (inactive) | 24.1 µM (inactive) | 35 µM (inactive) | 23.2 µM (inactive) | 52.1 µM (inactive) | 11.8 µM (inactive)
CC(=O)C1=C(C)N(c2ccccc2)C2(O)C=CC(O)=C3C(=O)c4ccccc4C(=O)C312 (centres undefined) | 15.8 µM (inactive) | 10.6 µM (inactive) | 15.8 µM (inactive) | 20.3 µM (inactive) | 8.55 µM (inactive) | 0.748 µM (active) | 18 µM (inactive) | 3.37 µM (inactive) | 17.7 µM (inactive) | 13.2 µM (inactive) | 19 µM (inactive) | 3.52 µM (inactive) |  | 11.6 µM (inactive) | 8.15 µM (inactive) | 8.91 µM (inactive) | 3.36 µM (inactive) | 16.3 µM (inactive) | 17.8 µM (inactive) | 8.75 µM (inactive)
CCOC(=O)C1=CCOc2cc(N(C)C)ccc21 | > 100 µM (inactive) | > 100 µM (inactive) |  | > 100 µM (inactive) | 65.9 µM (inactive) | > 100 µM (inactive) | > 100 µM (inactive) | > 100 µM (inactive) | > 100 µM (inactive) | > 100 µM (inactive) | > 100 µM (inactive) | 21.7 µM (inactive) | > 100 µM (inactive) | > 100 µM (inactive) | > 100 µM (inactive) | > 100 µM (inactive) | > 100 µM (inactive) | 45.3 µM (inactive) | > 100 µM (inactive) | 
C1=CN2C[n+]3cccc(OCc4ccccc4)c3N=C2C(OCc2ccccc2)=C1 | 10.3 µM (inactive) | 3.43 µM (inactive) | 52 µM (inactive) | 16.4 µM (inactive) |  | 12.3 µM (inactive) | 4.51 µM (inactive) | 2.84 µM (inactive) | 16.8 µM (inactive) | 0.344 µM (active) | 14.2 µM (inactive) | 5.14 µM (inactive) |  | 44.9 µM (inactive) | 23.3 µM (inactive) | 11.5 µM (inactive) | > 100 µM (inactive) | 2.65 µM (inactive) | 26.5 µM (inactive) | 12.8 µM (inactive)
O=C1CSC(c2ccc([N+](=O)[O-])cc2)N1c1nc(-c2ccc3c(c2)CCCC3)cs1 (centres undefined) | > 100 µM (inactive) | > 100 µM (inactive) | > 100 µM (inactive) |  | > 100 µM (inactive) | > 100 µM (inactive) | > 100 µM (inactive) | > 100 µM (inactive) | 70.1 µM (inactive) | 94.6 µM (inactive) | > 100 µM (inactive) | > 100 µM (inactive) | > 100 µM (inactive) | > 100 µM (inactive) | > 100 µM (inactive) | 25.1 µM (inactive) | > 100 µM (inactive) | > 100 µM (inactive) | > 100 µM (inactive) | 
COc1cc(NS(C)(=O)=O)ccc1NCc1c[nH]c2ccc3ncccc3c12 | 20.4 µM (inactive) | 20.6 µM (inactive) | 20.9 µM (inactive) | 16.3 µM (inactive) | 2.75 µM (inactive) | 20.5 µM (inactive) | 27.5 µM (inactive) | 11.3 µM (inactive) | 19.7 µM (inactive) | 18.9 µM (inactive) | 23.1 µM (inactive) | 23.2 µM (inactive) |  | 5.55 µM (inactive) | 21.2 µM (inactive) | 37.1 µM (inactive) | 20.3 µM (inactive) | 14.2 µM (inactive) | 19.4 µM (inactive) | 10.9 µM (inactive)
CN(C)C(=O)C(F)(F)C(c1ccc(C(F)(F)F)cc1)C1C(=O)N(C)C(=O)N(C)C1=O (centres undefined) | > 100 µM (inactive) |  | > 100 µM (inactive) | > 100 µM (inactive) |  |  | > 100 µM (inactive) | > 100 µM (inactive) | > 100 µM (inactive) | > 100 µM (inactive) | > 100 µM (inactive) | > 100 µM (inactive) |  | 78.3 µM (inactive) | > 100 µM (inactive) |  | > 100 µM (inactive) |  | > 100 µM (inactive) | > 100 µM (inactive)
COc1nc(OC)nc(-c2cccc(F)c2)n1 | 12 µM (inactive) | 16.2 µM (inactive) | 11.5 µM (inactive) | 18 µM (inactive) | 2.2 µM (inactive) | 15.2 µM (inactive) | 15.7 µM (inactive) | 10.8 µM (inactive) | 14.5 µM (inactive) | 14 µM (inactive) | 19 µM (inactive) | 13.8 µM (inactive) |  | 15.9 µM (inactive) | 16.7 µM (inactive) | 16.1 µM (inactive) | 14.3 µM (inactive) | 18.7 µM (inactive) | 19.3 µM (inactive) | 13.2 µM (inactive)
CC1(C)S[C@H](CN)N[C@H]1C(=O)OC(c1ccccc1)c1ccccc1 | 48.3 µM (inactive) | 32.4 µM (inactive) | 60.8 µM (inactive) | 34.2 µM (inactive) | 27.9 µM (inactive) | 31.4 µM (inactive) | 33 µM (inactive) | 21.6 µM (inactive) | 35.2 µM (inactive) | 24.8 µM (inactive) | 56.5 µM (inactive) |  |  | 63.5 µM (inactive) | 33.8 µM (inactive) | 37.4 µM (inactive) | > 100 µM (inactive) | 31.9 µM (inactive) | 25.5 µM (inactive) | 27.9 µM (inactive)
